The subject of the first experiment is Radical scavenging activity. As to the kind of experiment: Antioxidant activity assessed as inhibition of DPPH radical after 30 mins by spectrophotometric analysis.
Details: not given
It is filed as functional. On the technique in general: DPPH is a stable violet radical that fades when it is reduced.
Broadly, the IC50 is the concentration needed to halve the response being measured. For `COc1ccc(C2C(C#N)=C(N)Oc3cc(C)oc(=O)c32)cc1` (configuration not stated), the IC50 was 520 µM.

With `Cc1cc2c(c(=O)o1)C(c1ccc([N+](=O)[O-])cc1)C(C#N)=C(N)O2` (configuration not stated), the IC50 came out at 816 µM.

For the compound `Cc1cc2c(c(=O)o1)C(c1ccco1)C(C#N)=C(N)O2` (configuration not stated), the IC50 worked out at 228 µM.

For the compound `Cc1cc2c(c(=O)o1)C(c1ccccc1)C(C#N)=C(N)O2` (configuration not stated), the IC50 came to 769 µM.

On to `Cc1cc2c(c(=O)o1)C(c1c[nH]c3ccccc13)C(C#N)=C(N)O2` (configuration not stated), for which the IC50 was 339 µM.

As for `Cc1cc2c(c(=O)o1)C(c1cccs1)C(C#N)=C(N)O2` (configuration not stated), the IC50 is 739 µM.

Consider `Cc1cc2c(c(=O)o1)C(c1ccc(C)s1)C(C#N)=C(N)O2` (configuration not stated), for which the IC50 was 943 µM.

For `Cc1cc2c(c(=O)o1)C(c1c[nH]c3ccc(C#N)cc13)C(C#N)=C(N)O2` (configuration not stated), the IC50 was found to be 567 µM.

On to `Cc1cc2c(c(=O)o1)C(c1c[nH]c3ccc(Br)cc13)C(C#N)=C(N)O2` (configuration not stated), for which the IC50 was determined as 440 µM.

As to `Cc1cc2c(c(=O)o1)C(c1ccc(Cl)s1)C(C#N)=C(N)O2` (configuration not stated), the IC50 came to 616 µM.

Consider `Cc1ccc(C2C(C#N)=C(N)Oc3cc(C)oc(=O)c32)cc1` (configuration not stated), for which the IC50 came to 634 µM.

As for `Cc1cc2c(c(=O)o1)C(c1ccc(Cl)cc1)C(C#N)=C(N)O2` (configuration not stated), the IC50 amounted to 487 µM.

Take `Cc1cc2c(c(=O)o1)C(c1ccc(Br)cc1)C(C#N)=C(N)O2` (configuration not stated): the IC50 turned out to be 512 µM.

For `O=C1O[C@H]([C@@H](O)CO)C(O)=C1O` [ASCORBIC ACID], the IC50 turned out to be 106 µM.

The subject of the next experiment is MCF7. Nature of the experiment: Cytotoxicity against human MCF7 cells after 96 hrs by MTT assay. It is filed as functional, cell-based. The settings on record: MCF7, 96 h. In general terms: Formazan colour is commonly taken as a measure of viable cells.
`COc1ccc(C2C(C#N)=C(N)Oc3cc(C)oc(=O)c32)cc1` (configuration not stated) displayed an IC50 of 57 µM.

Take `Cc1cc2c(c(=O)o1)C(c1ccc([N+](=O)[O-])cc1)C(C#N)=C(N)O2` (configuration not stated): half-maximal inhibition (IC50) required 42 µM.

With `Cc1cc2c(c(=O)o1)C(c1ccco1)C(C#N)=C(N)O2` (configuration not stated), the IC50 stood at 27 µM.

As for `Cc1cc2c(c(=O)o1)C(c1ccccc1)C(C#N)=C(N)O2` (configuration not stated), the IC50 turned out to be 46 µM.

Compound `Cc1cc2c(c(=O)o1)C(c1c[nH]c3ccccc13)C(C#N)=C(N)O2` (configuration not stated) displayed an IC50 of 10 µM.

`Cc1cc2c(c(=O)o1)C(c1cccs1)C(C#N)=C(N)O2` (configuration not stated) yielded a half-maximal inhibitory concentration (IC50) of 15 µM.

`Cc1cc2c(c(=O)o1)C(c1ccc(C)s1)C(C#N)=C(N)O2` (configuration not stated) yielded an IC50 of 22 µM.

In turn, `Cc1cc2c(c(=O)o1)C(c1c[nH]c3ccc(C#N)cc13)C(C#N)=C(N)O2` (configuration not stated) came in with an IC50 of 7 µM.

The compound `Cc1cc2c(c(=O)o1)C(c1c[nH]c3ccc(Br)cc13)C(C#N)=C(N)O2` (configuration not stated) yielded an IC50 of 5 µM.

Take `Cc1cc2c(c(=O)o1)C(c1ccc(Cl)s1)C(C#N)=C(N)O2` (configuration not stated): the IC50 worked out at 12 µM.

On to `Cc1ccc(C2C(C#N)=C(N)Oc3cc(C)oc(=O)c32)cc1` (configuration not stated), for which the IC50 stood at 54 µM.

As for `Cc1cc2c(c(=O)o1)C(c1ccc(Cl)cc1)C(C#N)=C(N)O2` (configuration not stated), the 50% inhibitory concentration (IC50) was 32 µM.

In turn, `Cc1cc2c(c(=O)o1)C(c1ccc(Br)cc1)C(C#N)=C(N)O2` (configuration not stated) yielded an IC50 of 35 µM.

These data come from ChEMBL document CHEMBL3045549, “Solvent-free, green and efficient synthesis of pyrano[4, 3-b]pyrans by grinding and their biological evaluation as antitumor and antioxidant agents” (Med Chem Res, 2013).
